US8628961B2, “Small molecule antagonists of phosphatidylinositol-3,4,5-triphosphate (PIP3) and uses thereof” (Tufts University, priority 2010, dated 2014)

What was measured:
[1] = tested on: PI3K-PDK1-Akt pathway; experiment: PIP3-regulated phosphorylation events in U87MG cells; type: cell-based, human
Description: The effect of PIT-1 on PIP3-mediated signaling was examined in U87MG glioblastoma cells, which show elevated basal levels of PIP3 due to the loss of PTEN. Pore N et al. (2003) Cancer Res 63:236-41.

[2] = molecular target: Akt PH domain (Homo sapiens (Human), UniProt P31749); experiment: PH domain translocation assay (GFP fusion, plasma membrane); type: cell-based; conditions: PDGF stimulation
Description: Cells were transfected with the corresponding GFP-fusion vectors, serum starved overnight, and incubated with 100 μM PITs or PIT-1 is for 2 hr, followed by stimulation with 100 ng/ml PDGF or 250 ng/ml PMA for 5 min. The translocation was analyzed using fluorescent microscope and was quantitated by counting the number of cells with translocated PH domains in five random fields.
To begin characterizing cellular activity of PITs, a PH domain translocation assay was performed, measuring PIP3-induced association of GFP-fused PH domains with the plasma membrane. […] Varnai P et al. (1999) J Biol Chem 274:10983-9. Several PH-domain-containing proteins, which are known to bind PIP3 specifically and efficiently, were examined. […] Oikawa T et al. (2004) Nat Cell Biol 6:420-6.

[3] = molecular target: PDK1 PH domain (Homo sapiens (Human), UniProt O15530); experiment: FP PIP3/PDK1 PH domain binding assay; conditions: for IC50: 15 nM TMR-conjugated PIP3, 100 nM PDK1 PH domain, 30 min
Text: In order to identify compounds that disrupt the interaction between PIP3 and PH domains, a high-throughput fluorescence polarization (FP)-binding assay was developed using recombinant 1-123 amino acid N-terminal fragment of human Akt1 (also referred to herein simply as Akt), encompassing the PH domain (PH123 protein), and fluorescent […] PIP3 molecule. The amino acid sequence of human Akt1 is publicly available as, for example, GenBank Accession No. NP_001014432.1 (SEQ ID NO:1), and the corresponding DNA sequence is publicly available as, for example, GenBank Accession No. NM_001014432. Briefly, 5 μM recombinant GST fusion proteins containing 1-123 a.a. N-terminal fragment of human Akt1 (PH 123) or 100 nM 441-551 a.a. region of human PDK1 were incubated with 15 nM TMR-labeled PIP3, PIP2, or PIP5 in buffer containing 50 mM Tris-HCl (pH 7.5), 150 mM NaCl, and 5 mM b-ME for 15 min at room temperature in the dark. FP values were determined using Wallac Victor 3 plate reader. For the primary screen, 50,000 diverse small molecules from Harvard Institute of Chemistry and Cell Biology were screened (iccb.med.harvard.edu). Incubations were carried out for 1 hr. For secondary assays, PIT compounds were added at various concentrations (6.25, 12.5, 25, 50, 100, 150 and 200 μM), followed by a 30 min incubation. The inhibition rates were calculated as inhibition rate=[1−(compound-treated group/control group)]×100%, and IC50 value was determined using Origin6 software (MicroCal, LLC, Northampton, Mass.).

[4] = molecular target: GRP1 PH domain (Homo sapiens, UniProt O43739); experiment: FP PIP3/GRP1 PH domain binding assay; conditions: 15 nM TMR-conjugated PIP3, 100 nM GRP1 PH domain, 30 min
[5] = tested on: SUM159 cells transfected with VAV2 or WAVE2; experiment: Wound migration of VAV- or WAVE-overexpressing cells; type: cell-based, human; conditions: PDGF, 8 hr
Description: SUM159 cells were transfected with VAV2 or WAVE2. Scratch wound was generated in cell monolayer, followed by treatment with PIT-1 (100 μM) in the presence of PDGF (100 ng/ml) stimulation for 8 hr. The inhibitory effect of PITs on VAV- or WAVE-induced cell migration was calculated according to the width of wound. The width of wounded cell monolayers was measured in five random fields.

[6] = tested on: multiple cancer cell lines; experiment: Cancer cell viability, MTS or ATP assays; type: cell-based; conditions: dose- and time-dependent
Description: Based on the critical role of PIP3-dependent […] signaling in the regulation of cell survival, the effect of PIT-1 on the cancer cell viability was tested. Cancer cells were seeded into 96-well plates (white plates for ATP assay; black plates for fluorescent assay; clear plates for MTS assay) at the density of 5-10×10^3 cells per well in 100 μl of the appropriate media. Compounds were added at a series of concentrations and incubated for different times. For the ATP assay, a luminescence-based commercial kit (CellTiter-Glo, Promega, Madison, Wis.) was used. Thirty microliters of cell lysis/ATP detection reagent was added to each well, mixed for 10 min at room temperature, and the luminescence was measured using a Wallac Victor 3 plate reader (Perkin-Elmer, Wellesley, Mass.). For the MTS assay, a CellTiter 96 AQueous Non-Radioactive Cell Proliferation Assay Kit (Promega, Madison, Wis., USA) was used. Twenty microliters of the combined MTS/PMS solution was added into each well, incubated for 4 hr at 37° C., and the absorbance at 490 nm was measured using a Wallac Victor 3 plate reader. For the Sytox cell death assay, measuring loss of plasma membrane integrity, cells were incubated with 1 μM Sytox Green reagent (Molecular Probes, Eugene, Oreg.) for 30 min at 37° C. and the fluorescence intensity was measured using Wallac Victor 3 plate reader with excitation at 485 nm and emission at 545 nm. Next, 5 μl of 20% (v/v) Triton X-100 solution was added to each well and incubated for 1 hr at 37° C., and the signal was measured again. The ratio of values (percentage of dead cells in each well) before and after Triton X-100 treatment was calculated and normalized to the relevant controls not subjected to the cytotoxic stimuli. IC50 values were determined using Origin6 software (MicroCal, LLC, Northampton, Mass.).

Sequence of PDK1 PH domain (O15530 441-551): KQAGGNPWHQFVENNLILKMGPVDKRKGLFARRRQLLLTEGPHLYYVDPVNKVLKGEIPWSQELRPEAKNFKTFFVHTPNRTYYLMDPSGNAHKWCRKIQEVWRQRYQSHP
Sequence of Akt PH domain (P31749 5-108): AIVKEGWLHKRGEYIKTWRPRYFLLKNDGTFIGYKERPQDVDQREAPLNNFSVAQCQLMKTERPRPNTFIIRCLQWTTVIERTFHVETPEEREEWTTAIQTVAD

SMILES	PI3K-PDK1-Akt signaling in U87MG cells [1]	plasma membrane translocation of Akt PH domain [2]	IC50 [3]	inhibition of binding of PIP3 to the PH domain of PDK1 ([3]; FIG. 4)	IC50 [4]	inhibition of migration in VAV- and WAVE-overexpressing cells compared to control cells [5]	viability of multiple cancer cell lines [6]
O=C(NC(=S)Nc1cc([N+](=O)[O-])cc(Cl)c1O)c1ccccc1 [PIT-1]	suppressed activity of the PI3K-PDK1-Akt pathway	significantly inhibited the translocation	66.7 ± 3.5 µM	inhibited binding of PIP3 to the PH domain of PDK1	40.3 ± 2.8 µM	larger degree of inhibition of cell migration	reduced viability of multiple cancer cell lines
O=C(NC(=O)c1ccccc1)Nc1cc([N+](=O)[O-])cc(Cl)c1O [PIT-1i-1, reference compound]	failed to inhibit PDK1/Akt signaling	inactive	> 200 µM	–	> 200 µM	lacked activity	did not induce loss of viability
COc1c(Cl)cc([N+](=O)[O-])cc1NC(=S)NC(=O)c1ccccc1 [PIT-1i-2]	failed to inhibit PDK1/Akt signaling	inactive	> 200 µM	–	> 200 µM	lacked activity	did not induce loss of viability
